Key:
B2 bradykinin receptor = target: T1, B2 bradykinin receptor (Homo sapiens, UniProt P30411); format: cell membranes, Membrane; settings: chem-1; note: in other assays of this panel Not Active means under 50% inhibition at 10 µM
T1 sequence (P30411 whole entry): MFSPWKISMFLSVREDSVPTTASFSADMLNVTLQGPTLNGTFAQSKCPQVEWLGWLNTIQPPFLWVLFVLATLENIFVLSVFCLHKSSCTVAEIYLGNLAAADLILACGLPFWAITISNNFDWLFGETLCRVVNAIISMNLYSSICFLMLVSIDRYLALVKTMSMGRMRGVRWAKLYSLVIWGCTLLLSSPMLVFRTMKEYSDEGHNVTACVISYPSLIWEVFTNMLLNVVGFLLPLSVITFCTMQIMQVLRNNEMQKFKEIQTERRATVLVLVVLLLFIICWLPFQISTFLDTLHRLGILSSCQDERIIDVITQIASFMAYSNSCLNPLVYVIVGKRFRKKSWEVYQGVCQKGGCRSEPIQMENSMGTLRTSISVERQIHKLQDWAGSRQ

[1] = target: Sodium-dependent dopamine transporter (Homo sapiens, UniProt Q01959); assay: DRUGMATRIX: Dopamine Transporter radioligand binding (ligand: [125I] RTI-55); format: cell membranes, CHO-K1, Membrane; settings: cho-k1; Not Active = under 50% inhibition at 10 µM
[2] = DRUGMATRIX: GABAA, Flunitrazepam, Central radioligand binding (ligand: [3H] Flunitrazepam); format: cell membranes, Rattus norvegicus, Wistar, Brain, Membrane; settings: Not Active = under 50% inhibition at 10 µM
Histamine H2 receptor = Histamine H2 receptor (Homo sapiens, UniProt P25021); format: cell membranes, CHO-K1, Membrane; settings: cho-k1; note: in other assays of this panel Not Active means under 50% inhibition at 10 µM
[3] = target: Delta-type opioid receptor (Homo sapiens, UniProt P41143); format: cell membranes, HEK293, Membrane; settings: hek293; note: in other assays of this panel Not Active means under 50% inhibition at 10 µM
[4] = target: Protein kinase C alpha type (Homo sapiens, UniProt P17252); format: cell-based; settings: sf9;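 note: inhibition of PKCalpha kinase activity measured in an enzyme assay with histone as the phosphorylation substrate; in other assays of this panel Not Active means under 50% inhibition at 10 µM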
[5] = target: T2, Receptor-type tyrosine-protein phosphatase C (Homo sapiens, UniProt P08575); set-up: species or system Escherichia coli
T2 sequence (P08575 whole entry): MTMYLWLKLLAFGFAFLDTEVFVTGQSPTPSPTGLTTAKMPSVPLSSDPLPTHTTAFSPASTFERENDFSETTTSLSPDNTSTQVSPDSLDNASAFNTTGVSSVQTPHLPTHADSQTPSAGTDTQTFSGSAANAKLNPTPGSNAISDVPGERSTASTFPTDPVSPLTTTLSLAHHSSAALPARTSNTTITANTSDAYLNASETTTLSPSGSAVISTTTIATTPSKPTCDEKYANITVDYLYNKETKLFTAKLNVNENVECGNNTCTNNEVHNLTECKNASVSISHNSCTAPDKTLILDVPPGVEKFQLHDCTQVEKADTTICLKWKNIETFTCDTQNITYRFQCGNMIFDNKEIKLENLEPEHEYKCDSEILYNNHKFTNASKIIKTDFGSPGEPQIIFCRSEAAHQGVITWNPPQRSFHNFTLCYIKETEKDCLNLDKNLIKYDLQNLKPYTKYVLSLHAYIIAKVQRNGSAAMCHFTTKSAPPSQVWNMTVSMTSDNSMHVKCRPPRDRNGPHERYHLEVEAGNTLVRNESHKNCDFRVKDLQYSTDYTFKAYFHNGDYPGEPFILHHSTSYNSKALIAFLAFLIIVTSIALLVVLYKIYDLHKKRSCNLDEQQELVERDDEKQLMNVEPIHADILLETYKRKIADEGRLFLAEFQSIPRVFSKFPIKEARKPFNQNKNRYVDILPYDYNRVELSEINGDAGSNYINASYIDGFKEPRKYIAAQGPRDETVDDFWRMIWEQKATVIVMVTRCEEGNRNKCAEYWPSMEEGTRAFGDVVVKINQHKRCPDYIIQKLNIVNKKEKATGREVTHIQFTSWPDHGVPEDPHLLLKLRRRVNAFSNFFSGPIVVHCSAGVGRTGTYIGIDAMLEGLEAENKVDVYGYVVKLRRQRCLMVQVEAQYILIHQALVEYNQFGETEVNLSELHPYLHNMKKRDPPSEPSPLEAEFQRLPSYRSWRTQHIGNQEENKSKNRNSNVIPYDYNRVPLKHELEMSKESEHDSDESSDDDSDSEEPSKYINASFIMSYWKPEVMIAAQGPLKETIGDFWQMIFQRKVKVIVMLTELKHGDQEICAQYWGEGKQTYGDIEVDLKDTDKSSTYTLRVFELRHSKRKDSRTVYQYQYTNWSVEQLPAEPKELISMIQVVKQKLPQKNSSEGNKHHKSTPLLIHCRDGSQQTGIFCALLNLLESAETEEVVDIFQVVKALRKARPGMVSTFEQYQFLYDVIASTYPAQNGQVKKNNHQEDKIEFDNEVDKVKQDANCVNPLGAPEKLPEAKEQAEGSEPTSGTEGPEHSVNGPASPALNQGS

Sequence of Histamine H2 receptor (P25021 whole entry): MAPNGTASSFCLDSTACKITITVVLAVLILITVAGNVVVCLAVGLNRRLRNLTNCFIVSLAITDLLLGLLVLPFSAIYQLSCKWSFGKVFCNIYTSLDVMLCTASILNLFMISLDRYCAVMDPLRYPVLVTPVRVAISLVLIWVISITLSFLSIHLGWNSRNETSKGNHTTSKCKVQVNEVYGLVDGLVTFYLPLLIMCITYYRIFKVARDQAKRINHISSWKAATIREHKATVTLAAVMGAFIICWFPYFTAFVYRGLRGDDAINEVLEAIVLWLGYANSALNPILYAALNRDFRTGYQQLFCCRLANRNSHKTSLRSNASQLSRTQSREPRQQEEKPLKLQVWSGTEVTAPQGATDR
Sequence of Sodium-dependent dopamine transporter (Q01959 whole entry): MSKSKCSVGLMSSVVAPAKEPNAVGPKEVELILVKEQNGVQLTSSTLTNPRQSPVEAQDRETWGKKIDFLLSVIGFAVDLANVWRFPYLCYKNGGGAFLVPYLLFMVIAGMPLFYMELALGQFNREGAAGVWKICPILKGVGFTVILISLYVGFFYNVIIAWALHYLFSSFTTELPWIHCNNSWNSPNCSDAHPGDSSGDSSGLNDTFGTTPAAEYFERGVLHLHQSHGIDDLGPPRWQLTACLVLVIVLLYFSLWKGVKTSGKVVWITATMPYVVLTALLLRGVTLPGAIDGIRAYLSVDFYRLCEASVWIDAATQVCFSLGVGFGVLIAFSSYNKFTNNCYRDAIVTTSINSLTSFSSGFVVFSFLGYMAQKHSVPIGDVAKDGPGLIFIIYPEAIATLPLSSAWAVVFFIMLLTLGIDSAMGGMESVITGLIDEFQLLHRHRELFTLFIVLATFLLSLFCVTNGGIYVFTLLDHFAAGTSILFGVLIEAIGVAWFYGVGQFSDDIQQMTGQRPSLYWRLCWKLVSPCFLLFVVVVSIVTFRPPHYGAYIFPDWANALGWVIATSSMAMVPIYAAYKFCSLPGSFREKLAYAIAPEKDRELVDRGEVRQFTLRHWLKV
Sequence of Delta-type opioid receptor (P41143 whole entry): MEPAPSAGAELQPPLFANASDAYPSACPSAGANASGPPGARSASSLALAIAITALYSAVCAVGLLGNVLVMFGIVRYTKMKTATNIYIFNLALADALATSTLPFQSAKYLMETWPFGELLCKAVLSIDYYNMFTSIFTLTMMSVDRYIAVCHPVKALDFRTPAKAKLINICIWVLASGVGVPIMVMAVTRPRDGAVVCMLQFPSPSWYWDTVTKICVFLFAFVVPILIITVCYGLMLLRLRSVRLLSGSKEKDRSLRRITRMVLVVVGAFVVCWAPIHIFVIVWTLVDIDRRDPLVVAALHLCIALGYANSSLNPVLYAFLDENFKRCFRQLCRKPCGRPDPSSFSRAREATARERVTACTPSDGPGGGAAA

CC1=C(/C=C/C(C)=C/C=C/C(C)=C/C(=O)O)C(C)(C)CCC1 [TRETINOIN]
Not Active: IC50 (B2 bradykinin receptor) | IC50 [1] | IC50 [2] | Ki [2] | IC50 (Histamine H2 receptor) | IC50 [3] | IC50 [4] | IC50 [5]

C=CCc1ccc2c(c1)OCO2 [SAFROLE]
Not Active: IC50 (B2 bradykinin receptor) | IC50 [1] | IC50 [2] | Ki [2] | IC50 (Histamine H2 receptor) | IC50 [3] | IC50 [4] | IC50 [5]

C1CCN2C[C@@H]3C[C@@H](CN4CCCC[C@@H]34)[C@H]2C1 [SPARTEINE]
Not Active: IC50 (B2 bradykinin receptor) | IC50 [1] | IC50 [2] | Ki [2] | IC50 (Histamine H2 receptor) | IC50 [3] | IC50 [4] | IC50 [5]
